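1) Cells in 96-well plates. 2) Compound, 48 h, 5 concentrations. 3) Linear interpolation between surrounding doses. 4) Unreached endpoint = highest concentration. GI50 = concentration required for 50% inhibition of growth.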 Activity calls are given as the source filed them. Cut-off read from the data, not from the text of the source: active = GI50 up to about 1.1 µM and inactive = higher.
Key:
Experiment in all cases: DTP human tumour cell line panel, 48 h
[1] = tested on: UO-31
[2] = tested on: DU-145
[3] = tested on: NCI-H23
[4] = tested on: ACHN
[5] = tested on: LOX IMVI
[6] = tested on: NCI-H460
[7] = tested on: MDA-N
[8] = tested on: HCT-15
[9] = tested on: SN12C
[10] = tested on: OVCAR-4
[11] = tested on: HCT-116
[12] = tested on: UACC-62
[13] = tested on: UACC-257
[14] = tested on: IGROV-1
[15] = tested on: T47D
[16] = tested on: HOP-92
[17] = tested on: SF-295
[18] = tested on: MCF7
[19] = tested on: RXF 393

Compound	GI50 [1]	GI50 [2]	GI50 [3]	GI50 [4]	GI50 [5]	GI50 [6]	GI50 [7]	GI50 [8] [µM]	GI50 [9]	GI50 [10]	GI50 [11]	GI50 [12]	GI50 [13]	GI50 [14]	GI50 [15]	GI50 [16]	GI50 [17]	GI50 [18]	GI50 [19]
Cc1cccc(/N=N/C(=O)NNc2cccc(C)c2C)c1C	30.8 µM (inactive)	37 µM (inactive)	32.7 µM (inactive)	41.7 µM (inactive)	25.8 µM (inactive)	38.5 µM (inactive)	36.3 µM (inactive)	38.5	53.1 µM (inactive)	30.8 µM (inactive)	29.4 µM (inactive)	29.5 µM (inactive)	34.7 µM (inactive)	23.9 µM (inactive)	27.2 µM (inactive)	–	–	–	–
[O-][S+](Cc1ccccc1)c1ccccc1Cn1cccc1 (stereo not drawn)	> 100 µM (inactive)	> 100 µM (inactive)	> 100 µM (inactive)	> 100 µM (inactive)	> 100 µM (inactive)	> 100 µM (inactive)	–	> 100	> 100 µM (inactive)	41.9 µM (inactive)	> 100 µM (inactive)	71.6 µM (inactive)	> 100 µM (inactive)	> 100 µM (inactive)	> 100 µM (inactive)	96.6 µM (inactive)	60.4 µM (inactive)	> 100 µM (inactive)	42.8 µM (inactive)
O=C1C=C/C(=N/c2ccccc2)c2ccccc21	10.3 µM (inactive)	1.68 µM (inactive)	2.62 µM (inactive)	14.4 µM (inactive)	4.18 µM (inactive)	3.32 µM (inactive)	–	9.42	12.8 µM (inactive)	11.9 µM (inactive)	12.1 µM (inactive)	3.52 µM (inactive)	2.64 µM (inactive)	5.25 µM (inactive)	16.2 µM (inactive)	14.9 µM (inactive)	7.4 µM (inactive)	5.74 µM (inactive)	10.8 µM (inactive)
O=C(O)C1(C(=O)O)CC1(C(=O)O)C(=O)O	> 100 µM (inactive)	> 100 µM (inactive)	> 100 µM (inactive)	> 100 µM (inactive)	> 100 µM (inactive)	> 100 µM (inactive)	–	> 100	> 100 µM (inactive)	> 100 µM (inactive)	> 100 µM (inactive)	> 100 µM (inactive)	> 100 µM (inactive)	> 100 µM (inactive)	> 100 µM (inactive)	–	> 100 µM (inactive)	> 100 µM (inactive)	32.6 µM (inactive)
N/N=C(\N)SCCCCCCCCCCS/C(N)=N/N	15.1 µM (inactive)	20.9 µM (inactive)	25.8 µM (inactive)	20.7 µM (inactive)	11.5 µM (inactive)	15.9 µM (inactive)	–	14.3	34.9 µM (inactive)	–	26.8 µM (inactive)	21.5 µM (inactive)	30.1 µM (inactive)	18.7 µM (inactive)	5.57 µM (inactive)	–	23 µM (inactive)	23.6 µM (inactive)	–
CCCC(=O)OC1C(CO)OC(n2cc(F)c(=O)[nH]c2=O)C1F (stereo not drawn)	> 100 µM (inactive)	17.3 µM (inactive)	> 100 µM (inactive)	44.1 µM (inactive)	> 100 µM (inactive)	–	–	> 100	15.4 µM (inactive)	60.5 µM (inactive)	22.3 µM (inactive)	24.1 µM (inactive)	> 100 µM (inactive)	95.7 µM (inactive)	> 100 µM (inactive)	> 100 µM (inactive)	82 µM (inactive)	0.604 µM (active)	> 100 µM (inactive)
Nc1nc2c(c(=O)[nH]1)C(c1ccccc1)CC(=O)N2 (stereo not drawn)	> 100 µM (inactive)	> 100 µM (inactive)	> 100 µM (inactive)	> 100 µM (inactive)	> 100 µM (inactive)	> 100 µM (inactive)	> 100 µM (inactive)	> 100	> 100 µM (inactive)	> 100 µM (inactive)	> 100 µM (inactive)	> 100 µM (inactive)	> 100 µM (inactive)	> 100 µM (inactive)	> 100 µM (inactive)	–	> 100 µM (inactive)	> 100 µM (inactive)	–
Cc1ccc(/N=c2/oc3c(ccc4ccccc43)nc2Nc2ccc(C)cc2)cc1	> 100 µM (inactive)	> 100 µM (inactive)	> 100 µM (inactive)	80.4 µM (inactive)	> 100 µM (inactive)	> 100 µM (inactive)	> 100 µM (inactive)	> 100	> 100 µM (inactive)	> 100 µM (inactive)	> 100 µM (inactive)	> 100 µM (inactive)	> 100 µM (inactive)	> 100 µM (inactive)	> 100 µM (inactive)	> 100 µM (inactive)	> 100 µM (inactive)	–	> 100 µM (inactive)
O=C1N[C@H](C(=O)O)[C@@H](c2ccc(OCc3ccccc3)cc2)O1	> 100 µM (inactive)	35.5 µM (inactive)	40.4 µM (inactive)	36.5 µM (inactive)	–	–	> 100 µM (inactive)	41.8	45.1 µM (inactive)	29.7 µM (inactive)	31.7 µM (inactive)	67.5 µM (inactive)	> 100 µM (inactive)	20.9 µM (inactive)	26.3 µM (inactive)	–	26.1 µM (inactive)	37.1 µM (inactive)	12.9 µM (inactive)
Brc1ccc(C2=NCSC(c3ccc(Br)cc3)=N2)cc1	15.4 µM (inactive)	–	32 µM (inactive)	21.7 µM (inactive)	25.4 µM (inactive)	18.4 µM (inactive)	20.1 µM (inactive)	28.2	29.6 µM (inactive)	41.9 µM (inactive)	16.6 µM (inactive)	5.3 µM (inactive)	19.1 µM (inactive)	33.2 µM (inactive)	–	37.7 µM (inactive)	26.9 µM (inactive)	32.2 µM (inactive)	8.53 µM (inactive)
CNC(=O)c1nc[nH]c1/N=N/N(C)N	> 100 µM (inactive)	> 100 µM (inactive)	> 100 µM (inactive)	–	74.6 µM (inactive)	55 µM (inactive)	> 100 µM (inactive)	> 100	> 100 µM (inactive)	> 100 µM (inactive)	> 100 µM (inactive)	> 100 µM (inactive)	> 100 µM (inactive)	> 100 µM (inactive)	> 100 µM (inactive)	–	> 100 µM (inactive)	–	> 100 µM (inactive)
CC(=O)OCc1ccc2c(c1)C(O)NC(=O)O2 (stereo not drawn)	> 100 µM (inactive)	> 100 µM (inactive)	> 100 µM (inactive)	> 100 µM (inactive)	47.2 µM (inactive)	> 100 µM (inactive)	–	44.3	50.7 µM (inactive)	93.1 µM (inactive)	52.8 µM (inactive)	> 100 µM (inactive)	> 100 µM (inactive)	> 100 µM (inactive)	34.6 µM (inactive)	> 100 µM (inactive)	> 100 µM (inactive)	78.9 µM (inactive)	> 100 µM (inactive)
[O-][N+]1=NC(c2ccccc2)=C1c1ccccc1	> 50 µM (inactive)	> 50 µM (inactive)	> 50 µM (inactive)	> 50 µM (inactive)	> 50 µM (inactive)	> 50 µM (inactive)	> 50 µM (inactive)	> 50	> 50 µM (inactive)	> 50 µM (inactive)	> 50 µM (inactive)	> 50 µM (inactive)	> 50 µM (inactive)	> 50 µM (inactive)	–	> 50 µM (inactive)	> 50 µM (inactive)	> 50 µM (inactive)	> 50 µM (inactive)
Cc1ccc(CC2(OCCN(C)C)CCC(C(C)(C)C)CC2)cc1 (stereo not drawn)	5.33 µM (inactive)	5.47 µM (inactive)	11.4 µM (inactive)	8.02 µM (inactive)	1.63 µM (inactive)	1.79 µM (inactive)	2.28 µM (inactive)	4.63	5.97 µM (inactive)	5.13 µM (inactive)	2.26 µM (inactive)	3.31 µM (inactive)	2.09 µM (inactive)	8.99 µM (inactive)	2.68 µM (inactive)	–	4.54 µM (inactive)	3.08 µM (inactive)	–
CC(C)(C)OC(=O)c1cnc(Cl)cn1	6.19 µM (inactive)	87.5 µM (inactive)	20.7 µM (inactive)	35.6 µM (inactive)	23.8 µM (inactive)	49.7 µM (inactive)	–	11.7	31.8 µM (inactive)	28.1 µM (inactive)	33.6 µM (inactive)	31.8 µM (inactive)	30.4 µM (inactive)	23.4 µM (inactive)	35.2 µM (inactive)	3.12 µM (inactive)	> 100 µM (inactive)	23.5 µM (inactive)	–
O=c1c(C(c2ccc(-c3ccccc3)cc2)c2c(O)oc3ccccc3c2=O)c(O)oc2ccccc12	17.7 µM (inactive)	59.8 µM (inactive)	24.8 µM (inactive)	26.7 µM (inactive)	19.1 µM (inactive)	18.9 µM (inactive)	19.4 µM (inactive)	19.1	16.7 µM (inactive)	35.1 µM (inactive)	23.2 µM (inactive)	19.3 µM (inactive)	34.4 µM (inactive)	34.8 µM (inactive)	40 µM (inactive)	19.1 µM (inactive)	–	–	–
O=c1c(C(c2cc(OCc3ccccc3)cc(OCc3ccccc3)c2)c2c(O)oc3ccccc3c2=O)c(O)oc2ccccc12	4.85 µM (inactive)	6.35 µM (inactive)	4.42 µM (inactive)	2.92 µM (inactive)	15.3 µM (inactive)	3.45 µM (inactive)	–	3.17	3.71 µM (inactive)	4.97 µM (inactive)	3.39 µM (inactive)	4.02 µM (inactive)	13 µM (inactive)	14.1 µM (inactive)	8.55 µM (inactive)	2.69 µM (inactive)	5.42 µM (inactive)	12.3 µM (inactive)	22.4 µM (inactive)
